Results published in patent publication US20200352976A1, “HYPOMETHYLATING AGENTS FOR USE IN TREATMENT OF CANCER” (Otsuka Pharmaceutical Co., Ltd, priority 2019, published 2020).

System: intermediate-risk or high-risk myelodysplastic syndromes (MDS) or chronic myelomonocytic leukemia (CMML)
Assay: Phase 1/2 trial (Phase 2 portion) with subgroup and landmark analyses: response, survival, transfusion independence
Assay type: in vivo, human
Conditions: for Median survival: all 102 patients
Protocol: A multicenter, open-label, randomized, phase 1/2 trial was performed with Compound I-1 to compare the activity and safety of two doses of Compound I-1 in hypomethylating agent treatment naïve or relapsed or refractory patients with intermediate-risk or high-risk myelodysplastic syndromes.
Patients enrolled in the study were aged 18 years or older, with a confirmed diagnosis of IPSS intermediate-1, intermediate-2, or high-risk myelodysplastic syndromes (MDS), or chronic myelomonocytic leukemia (CMML). Patients were either hypomethylating agent treatment-naïve or had relapsed or refractory disease after previous hypomethylating agent treatment as determined by the investigators' judgment (two or more complete full-dose cycles of a hypomethylating agent). The IPSS score in patients with relapsed or refractory myelodysplastic syndromes had been established at the time of their initial diagnosis. Eligible patients had Eastern Cooperative Oncology Group performance status of 0-2; adequate renal function (serum creatinine ≤1.5-times the upper limit of normal [ULN]) and adequate hepatic function (total bilirubin ≤2-times the ULN, and aspartate and alanine transaminases ≤2.5-times the ULN); had not undergone major surgery within 4 weeks or hemopoietic stem-cell transplantation within 8 weeks; or received chemotherapy within 2 weeks or nitrosoureas within 6 weeks of Compound I-1 treatment (hydroxycarbamide was allowed during treatment cycle 1). A patient with previous allogeneic stem-cell transplants was only eligible if the patient had no evidence of active graft-versus-host disease and had discontinued immunosuppressive therapy 2 weeks or more before receiving the study drug.
Patients received subcutaneous Compound I-1 at 60 or 90 mg/m^2 on days 1-5 of a 28-day treatment cycle. The intention was to provide the standard planned dose for four or more cycles; dose reduction could be instituted, as necessary, and the length of treatment cycles could be extended up to 42 days to allow for bone-marrow recovery in cases of severe cytopenia. Additional delay or dose reduction was allowed for recovery from toxicity in previous cycles based on the physician's judgment.
Hematological responses were monitored by analysis of blood and bone marrow aspiration. After the initial bone marrow aspirate screening at baseline, the results of peripheral blood assessments determined the frequency of subsequent bone marrow aspiration to confirm response or assess drug-related bone marrow toxicity. Complete peripheral blood counts and white blood cell differentials were measured at least once a week, including granulocyte numbers, platelet numbers, and hemoglobin concentration.
The primary endpoint was overall response, which was a composite of complete response (CR), partial response, marrow complete response (mCR), and hematological improvement. Overall response was assessed by local investigators. Secondary endpoints included the individual components of overall response, time to response, duration of response, overall survival, blood transfusion and platelet transfusion independence at weeks 8 and 16, and safety, including the incidence of adverse events, and all-cause early mortality at 30, 60, and 90 days. Exploratory analyses were done to examine the association between baseline characteristics and overall response.
Activity and safety endpoints were evaluated for all patients who received at least one dose of study drug, and no patients who received treatment were excluded from the analyses. […] Time to response and duration of response were summarized in days using descriptive statistics. Overall survival was analyzed using the Kaplan-Meier method, with survival time censored on the last date of contact if the patient was alive or lost to follow-up. Blood and platelet transfusion independence were summarized descriptively in the subset of patients who were transfusion-dependent at baseline. […]

[1] = landmark analysis, at least 4 cycles (65 patients)

`Nc1ncn([C@H]2CC(OP(=O)(O)OC[C@H]3O[C@@H](n4cnc5c(=O)[nH]c(N)nc54)CC3O)[C@@H](CO)O2)c(=O)n1` (stereo partly shown) [Compound I-1] showed a 12-month survival (60 mg/m^2) of 67%, a 24-month survival (60 mg/m^2) of 39% and a Duration of response (60 mg/m^2) of 295 days. It also gave a Median overall survival (60 mg/m^2) of 611 days, a Partial response (60 mg/m^2 (n = 53)) of 0 patients and a 12-month survival (90 mg/m^2) of 60%. The 24-month survival (90 mg/m^2) was 30%, the Duration of response (90 mg/m^2) was 207 days and the Median overall survival (90 mg/m^2) was 399 days. The Partial response (90 mg/m^2 (n = 49)) was 0 patients, the Median survival (4 or more treatment cycles) was 20.4 months and the OS (6 or more treatment cycles) was 23.8 months. For the same compound, the OS hazard ratio (6 or more vs less than 6 treatment cycles) was 0.41, the Partial response (All patients (n = 102)) was 0 patients and the “Median OS” value (Baseline BM Blasts >5%) was 12.3 months. The “Median OS” value (Baseline BM Blasts ≤5%) was 22.7 months, the “Median OS” value (Baseline ECOG PS 0-1) was 15.6 months and the “Median OS” value (Baseline ECOG PS 2) was 8.7 months. The “Median OS” value (Baseline RBCs Transfusion Dependent) was 11.7 months, the “Median OS” value (Baseline RBCs Transfusion Independent) was 20.4 months and the Partial response (Relapsed or refractory (n = 53)) was 0 patients. For the same compound, the “Median OS” value (TN MDS/CMML patients) was 23.4 months, the Partial response (Treatment-naïve (n = 49)) was 0 patients and the Survival hazard ratio (at least 4 vs less than 4 treatment cycles) was 0.55. The “Median duration of complete, partial or marrow complete response” value (entire population) was 203 days, the Median overall survival (entire study population) was 460 days and the “Median OS” value (landmark analysis, <4 cycles) was 15.2 m. For the same compound, the “Objective response (OR) rate” value (landmark analysis, <4 cycles (26 patients)) was 15%, the “Median OS” value (landmark analysis, <6 cycles) was 13.6 m and the “Objective response (OR) rate” value (landmark analysis, <6 cycles (43 patients)) was 26%. The “Median OS” value (landmark analysis, at least 4 cycles) was 20.4 m, the Objective response [1] was 44 patients and the “Objective response (OR) rate” value [1] was 68%. The “OS HR” value (landmark analysis, at least 4 vs <4 cycles) was 0.78, the “Median OS” value (landmark analysis, at least 6 cycles) was 23.8 m and the “Objective response (OR) rate” value (landmark analysis, at least 6 cycles (44 patients)) was 82%. For the same compound, the “OS HR” value (landmark analysis, at least 6 vs <6 cycles) was 0.51, the “OS HR” value (landmark, absence of objective response, at least 4 vs <4 cycles) was 0.82 and the “OS HR” value (landmark, absence of objective response, at least 6 vs <6 cycles) was 0.42. The Median survival (less than 4 treatment cycles) was 8.7 months, the OS (less than 6 treatment cycles) was 9.1 months and the “Median time to response” value (patients with CR or marrow CR, entire study population) was 85 days. For the same compound, the “Median OS” value (r/r MDS/CMML patients) was 11.7 months, the 2-year survival rate (relapsed or refractory cohort) was 25% and the Median overall survival (relapsed or refractory cohort) was 352 days. For the same compound, the Median overall survival (relapsed/refractory, 60 mg/m^2) was 9.1 months, the Median overall survival (relapsed/refractory, 90 mg/m^2) was 12.3 months and the 2-year survival rate (treatment-naïve cohort) was 44%. For the same compound, the Median overall survival (treatment-naïve cohort) was 703 days.
